Calls of active or inactive are those of the source. The calls are words filed in the database; no cut-off is given here.

Experiment [1] relates to Cystic fibrosis transmembrane conductance regulator (Homo sapiens), P13569 [F508del]. The experiment can be described thus: Corrector activity at 3xHA-tagged full-length human CFTR F508del mutant expressed in human CFBE41o- cells assessed as functional rescue of channel by measuring anion transport measured after 24 hrs in presence of VX-809/N-(5-(4-fluorobenzyl)thiazol-2-yl)-2,5-dimethylfuran-3-carboxamide by halide-sensitive YFP quenching assay relative to combination of VX-809/N-(5-(4-fluorobenzyl)thiazol-2-yl)-2,5-dimethylfuran-3-carboxamide. It is filed as cell-based. Conditions: filed as activator.
Cystic fibrosis transmembrane conductance regulator (Homo sapiens), P13569 [F508del], sequence (P13569 as listed by the source): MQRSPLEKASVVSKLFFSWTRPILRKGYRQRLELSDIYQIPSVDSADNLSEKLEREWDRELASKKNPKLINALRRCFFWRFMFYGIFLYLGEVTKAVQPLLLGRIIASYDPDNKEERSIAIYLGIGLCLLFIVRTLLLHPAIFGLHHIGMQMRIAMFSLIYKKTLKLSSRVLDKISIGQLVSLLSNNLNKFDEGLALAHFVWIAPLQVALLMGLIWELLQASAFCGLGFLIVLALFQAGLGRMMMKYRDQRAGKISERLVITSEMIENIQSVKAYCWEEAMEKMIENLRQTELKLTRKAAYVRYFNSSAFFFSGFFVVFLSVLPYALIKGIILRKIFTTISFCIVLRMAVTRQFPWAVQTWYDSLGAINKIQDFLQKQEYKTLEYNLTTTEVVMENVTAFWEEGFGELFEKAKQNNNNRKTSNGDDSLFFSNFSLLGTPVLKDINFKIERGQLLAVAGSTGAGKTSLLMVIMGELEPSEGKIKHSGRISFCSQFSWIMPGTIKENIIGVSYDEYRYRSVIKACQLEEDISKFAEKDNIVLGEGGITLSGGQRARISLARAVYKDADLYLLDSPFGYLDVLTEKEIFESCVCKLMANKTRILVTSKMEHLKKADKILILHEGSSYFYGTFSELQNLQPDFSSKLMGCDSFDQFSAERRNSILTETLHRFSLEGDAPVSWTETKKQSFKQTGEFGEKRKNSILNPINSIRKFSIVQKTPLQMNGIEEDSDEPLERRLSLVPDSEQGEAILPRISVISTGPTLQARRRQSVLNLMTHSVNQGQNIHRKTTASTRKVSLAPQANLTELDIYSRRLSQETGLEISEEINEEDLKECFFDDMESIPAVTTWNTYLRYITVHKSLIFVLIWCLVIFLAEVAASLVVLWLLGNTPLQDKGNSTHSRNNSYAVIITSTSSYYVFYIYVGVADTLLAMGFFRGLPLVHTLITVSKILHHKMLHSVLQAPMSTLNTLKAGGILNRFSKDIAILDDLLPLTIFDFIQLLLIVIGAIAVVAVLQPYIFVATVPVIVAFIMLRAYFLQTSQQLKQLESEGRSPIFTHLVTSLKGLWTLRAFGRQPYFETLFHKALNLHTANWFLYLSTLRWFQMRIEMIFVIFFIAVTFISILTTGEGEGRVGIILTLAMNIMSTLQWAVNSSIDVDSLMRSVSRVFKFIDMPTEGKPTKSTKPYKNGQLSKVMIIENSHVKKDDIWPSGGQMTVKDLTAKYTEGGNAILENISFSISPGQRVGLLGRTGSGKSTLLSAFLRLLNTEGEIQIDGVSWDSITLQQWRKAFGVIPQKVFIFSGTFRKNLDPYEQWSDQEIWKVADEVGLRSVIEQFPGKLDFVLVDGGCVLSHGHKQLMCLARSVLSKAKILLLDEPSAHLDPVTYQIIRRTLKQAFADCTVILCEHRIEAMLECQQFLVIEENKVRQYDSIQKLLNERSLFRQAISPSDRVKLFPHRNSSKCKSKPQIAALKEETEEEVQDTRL

For experiment [2] the test system is unchanged. The experiment can be described thus: Corrector activity at 3xHA-tagged full-length human CFTR F508del mutant expressed in human CFBE41o- cells assessed as restoration of plasma membrane density of channel in presence of N-(5-(4-fluorobenzyl)thiazol-2-yl)-2,5-dimethylfuran-3-carboxamide incubated for 24 hrs by ELISA. It is filed as cell membranes. Conditions: filed as activator. A general note: In an ELISA, binding on a coated surface is turned into a signal by an enzyme label.

Experiment [3] deals with Cystic fibrosis transmembrane conductance regulator (Homo sapiens), P13569 [S13F]. The experiment can be described thus: Corrector activity at 3xHA-tagged full-length human CFTR S13F mutant expressed in human CFBE41o- cells assessed as restoration of plasma membrane density of channel in presence of VX-809/N-(5-(4-fluorobenzyl)thiazol-2-yl)-2,5-dimethylfuran-3-carboxamide by ELISA. Conditions: filed as activator. Type of experiment: cell membranes.
Cystic fibrosis transmembrane conductance regulator (Homo sapiens), P13569 [S13F], sequence (P13569 whole entry S13F): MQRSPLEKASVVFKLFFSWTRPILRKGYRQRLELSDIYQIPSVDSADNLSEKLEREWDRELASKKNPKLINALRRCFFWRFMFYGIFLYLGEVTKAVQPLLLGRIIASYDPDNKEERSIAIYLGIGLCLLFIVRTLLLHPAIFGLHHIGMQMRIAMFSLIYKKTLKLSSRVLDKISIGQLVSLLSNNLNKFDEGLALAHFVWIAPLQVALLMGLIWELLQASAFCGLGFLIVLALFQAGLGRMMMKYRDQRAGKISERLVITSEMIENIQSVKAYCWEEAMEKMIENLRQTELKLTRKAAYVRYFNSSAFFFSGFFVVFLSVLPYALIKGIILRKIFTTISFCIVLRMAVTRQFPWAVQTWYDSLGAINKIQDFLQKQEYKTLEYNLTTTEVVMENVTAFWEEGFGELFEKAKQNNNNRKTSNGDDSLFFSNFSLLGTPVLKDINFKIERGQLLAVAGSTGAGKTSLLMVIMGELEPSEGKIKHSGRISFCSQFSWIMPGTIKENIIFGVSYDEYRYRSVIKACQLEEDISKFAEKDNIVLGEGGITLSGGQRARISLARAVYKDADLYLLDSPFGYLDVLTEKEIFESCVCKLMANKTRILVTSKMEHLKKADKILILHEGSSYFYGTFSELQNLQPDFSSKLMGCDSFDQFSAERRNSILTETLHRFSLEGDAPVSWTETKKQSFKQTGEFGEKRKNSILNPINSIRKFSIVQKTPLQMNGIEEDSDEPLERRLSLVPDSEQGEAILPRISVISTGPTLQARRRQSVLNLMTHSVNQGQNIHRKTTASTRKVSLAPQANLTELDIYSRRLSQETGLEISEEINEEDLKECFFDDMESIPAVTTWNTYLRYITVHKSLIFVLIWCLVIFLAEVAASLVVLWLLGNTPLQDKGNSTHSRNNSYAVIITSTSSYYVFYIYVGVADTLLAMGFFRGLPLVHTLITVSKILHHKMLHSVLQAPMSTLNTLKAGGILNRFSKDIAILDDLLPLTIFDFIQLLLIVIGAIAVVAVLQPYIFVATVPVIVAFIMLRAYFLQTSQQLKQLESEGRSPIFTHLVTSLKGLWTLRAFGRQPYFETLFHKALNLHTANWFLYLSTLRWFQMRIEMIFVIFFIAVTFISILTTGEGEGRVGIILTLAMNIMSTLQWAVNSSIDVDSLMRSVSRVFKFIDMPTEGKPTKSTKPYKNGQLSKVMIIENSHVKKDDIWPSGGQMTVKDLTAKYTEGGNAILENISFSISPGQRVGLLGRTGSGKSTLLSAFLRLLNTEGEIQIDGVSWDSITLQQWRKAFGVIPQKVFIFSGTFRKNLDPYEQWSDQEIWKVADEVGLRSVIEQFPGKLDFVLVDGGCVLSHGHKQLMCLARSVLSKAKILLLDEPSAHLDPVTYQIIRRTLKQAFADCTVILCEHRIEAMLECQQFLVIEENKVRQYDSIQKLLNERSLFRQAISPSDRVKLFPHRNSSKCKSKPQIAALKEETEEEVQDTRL

Experiment [4] has the same test system. The experiment can be described thus: Corrector activity at 3xHA-tagged full-length human CFTR S13F mutant expressed in human CFBE41o- cells assessed as restoration of plasma membrane density of channel in presence of N-(5-(4-fluorobenzyl)thiazol-2-yl)-2,5-dimethylfuran-3-carboxamide incubated for 24 hrs by ELISA. Type of experiment: cell membranes. The following applies: filed as activator.

Experiment [5] deals with Cystic fibrosis transmembrane conductance regulator (Homo sapiens), P13569 [F508del]. The experiment can be described thus: Corrector activity at 3xHA-tagged full-length human CFTR F508del mutant expressed in human CFBE41o- cells assessed as […] forskolin/VX-770-induced transepithelial short-circuit current at 10 uM in presence of VX-809/N-(5-(4-fluorobenzyl)thiazol-2-yl)-2,5-dimethylfuran-3-carboxamide by electrophysiological method relative to control. Type of experiment: cell-based. Further details: scale not given: the % may be the effect or the level left. The following applies: filed as activator.

The test system is the same in experiment [6]. The experiment in a line: Corrector activity at 3xHA-tagged full-length human CFTR F508del mutant expressed in human CFBE41o- cells assessed as restoration of plasma membrane density of channel incubated for 24 hrs in presence of VX-445 by ELISA. Type of experiment: cell membranes.
For experiment [7] the test system is unchanged. The experiment in a line: (§1) Corrector activity at 3xHA-tagged full-length human CFTR F508del mutant expressed in human CFBE41o- cells assessed as restoration of plasma membrane density of channel incubated for 24 hrs in presence of VX-809/N-(5-(4-fluorobenzyl)thiazol-2-yl)-2,5-dimethylfuran-3-carboxamide by ELISA. Type of experiment: cell membranes. Conditions: filed as activator, dose 10.0 µM.

The target of experiment [8] is Cystic fibrosis transmembrane conductance regulator (Homo sapiens, UniProt P13569, F508DEL). The experiment is described as §1. It is filed as cell membranes.
Cystic fibrosis transmembrane conductance regulator, sequence (P13569 as listed by the source): as the sequence (P13569 as listed by the source) above
The test system of experiment [9] is Cystic fibrosis transmembrane conductance regulator (Homo sapiens), P13569 [S13F]. The experiment in a line: Corrector activity at 3xHA-tagged full-length human CFTR S13F mutant expressed in human CFBE41o- cells assessed as restoration of plasma membrane density of channel at 10 uM incubated for 24 hrs in presence of VX-445 by ELISA. Type of experiment: cell membranes.

In experiment [10] the test system is Cystic fibrosis transmembrane conductance regulator (Homo sapiens), P13569 [S492F]. The experiment can be described thus: Corrector activity at 3xHA-tagged full-length human CFTR S492F mutant expressed in human CFBE41o- cells assessed as restoration of plasma membrane density of channel in presence of VX-809/N-(5-(4-fluorobenzyl)thiazol-2-yl)-2,5-dimethylfuran-3-carboxamide by ELISA. Conditions: filed as activator. It is filed as cell membranes.
Cystic fibrosis transmembrane conductance regulator (Homo sapiens), P13569 [S492F], sequence (P13569 whole entry S492F): as the sequence (P13569 whole entry S13F) above, with F13S, S492F counted along it

Experiment [11] concerns Cystic fibrosis transmembrane conductance regulator (Homo sapiens), P13569 [R560T]. The experiment can be described thus: Corrector activity at 3xHA-tagged full-length human CFTR R560T mutant expressed in human CFBE41o- cells assessed as restoration of plasma membrane density of channel in presence of VX-809/N-(5-(4-fluorobenzyl)thiazol-2-yl)-2,5-dimethylfuran-3-carboxamide by ELISA. Type of experiment: cell membranes.
Cystic fibrosis transmembrane conductance regulator (Homo sapiens), P13569 [R560T], sequence (P13569 whole entry R560T): as the sequence (P13569 whole entry S13F) above, with F13S, R560T counted along it

The test system of experiment [12] is Cystic fibrosis transmembrane conductance regulator (Homo sapiens), P13569 [F508del]. The experiment can be described thus: Corrector activity at 3xHA-tagged full-length human CFTR F508del mutant expressed in human CFBE41o- cells assessed as restoration of plasma membrane density of channel incubated for 24 hrs in presence of VX-809 by ELISA. It is filed as cell membranes. Conditions: filed as activator.

The test system is the same in experiment [13]. The experiment can be described thus: Corrector activity at 3xHA-tagged full-length human CFTR F508del mutant expressed in human CFBE41o- cells assessed as fractional plasma membrane density at 10 uM in presence of VX-809/N-(5-(4-fluorobenzyl)thiazol-2-yl)-2,5-dimethylfuran-3-carboxamide relative to forskoli-stimulated wild-type CFTR expressed in human CFBE41o- cells. It is filed as cell membranes. The following applies: filed as activator.

Experiment [14] has as its system Cystic fibrosis transmembrane conductance regulator (Homo sapiens), P13569 [S13F]. The experiment can be described thus: Corrector activity at 3xHA-tagged full-length human CFTR S13F mutant expressed in human CFBE41o- cells assessed as restoration of plasma membrane density of channel in presence of VX-809 incubated for 24 hrs by ELISA. It is filed as cell membranes. The following applies: filed as activator.

The subject of experiment [15] is Cystic fibrosis transmembrane conductance regulator (Homo sapiens), P13569 [N1303K]. The experiment in a line: Corrector activity at 3xHA-tagged full-length human CFTR N1303K mutant expressed in human CFBE41o- cells assessed as restoration of plasma membrane density of channel in presence of VX-809/N-(5-(4-fluorobenzyl)thiazol-2-yl)-2,5-dimethylfuran-3-carboxamide by ELISA relative to wild-type CFTR level. Conditions: filed as activator. It is filed as cell membranes.

For experiment [16], the system named is Cystic fibrosis transmembrane conductance regulator (Homo sapiens), P13569 [S492F]. The experiment in a line: Corrector activity at 3xHA-tagged full-length human CFTR S492F mutant expressed in human CFBE41o- cells assessed as restoration of plasma membrane density of channel in presence of N-(5-(4-fluorobenzyl)thiazol-2-yl)-2,5-dimethylfuran-3-carboxamide incubated for 24 hrs by ELISA. It is filed as cell membranes. The following applies: filed as activator.

Experiment [17] relates to Cystic fibrosis transmembrane conductance regulator (Homo sapiens), P13569 [S13F]. The experiment can be described thus: Corrector activity at 3xHA-tagged full-length human CFTR S13F mutant expressed in human CFBE41o- cells assessed as restoration of plasma membrane density of channel incubated for 24 hrs in presence of VX-445 by ELISA. Type of experiment: cell membranes.

The test system of experiment [18] is Cystic fibrosis transmembrane conductance regulator (Homo sapiens), P13569 [F508del]. The experiment in a line: Corrector activity at 3xHA-tagged full-length human CFTR F508del mutant expressed in human CFBE41o- cells assessed as restoration of plasma membrane density of channel at 10 uM incubated for 24 hrs in presence of VX-809/N-(5-(4-fluorobenzyl)thiazol-2-yl)-2,5-dimethylfuran-3-carboxamide by ELISA relative to wild-type CFTR level. The following applies: filed as activator. Type of experiment: cell membranes.

Experiment [19] has as its system Cystic fibrosis transmembrane conductance regulator (Homo sapiens), P13569 [S492F]. The experiment can be described thus: Corrector activity at 3xHA-tagged full-length human CFTR S492F mutant expressed in human CFBE41o- cells assessed as restoration of plasma membrane density of channel in presence of VX-661 incubated for 24 hrs by ELISA. The following applies: filed as activator. Type of experiment: cell membranes.

Experiment [20] has as its system Cystic fibrosis transmembrane conductance regulator (Homo sapiens), P13569 [F508del]. The experiment in a line: Corrector activity at 3xHA-tagged full-length human CFTR F508del mutant expressed in human CFBE41o- cells assessed as restoration of plasma membrane density of channel incubated for 24 hrs in presence of VX-661 by ELISA. It is filed as cell membranes. Conditions: filed as activator.

For experiment [21], the system named is Cystic fibrosis transmembrane conductance regulator (Homo sapiens), P13569 [S13F]. The experiment can be described thus: Corrector activity at 3xHA-tagged full-length human CFTR S13F mutant expressed in human CFBE41o- cells assessed as restoration of plasma membrane density of channel in presence of VX-661 incubated for 24 hrs by ELISA. Type of experiment: cell membranes. Conditions: filed as activator.

Experiment [22] concerns Cystic fibrosis transmembrane conductance regulator (Homo sapiens), P13569 [S492F]. The experiment can be described thus: Corrector activity at 3xHA-tagged full-length human CFTR S492F mutant expressed in human CFBE41o- cells assessed as restoration of plasma membrane density of channel in presence of VX-809 incubated for 24 hrs by ELISA. Type of experiment: cell membranes. The following applies: filed as activator.

For experiment [23], the system named is Cystic fibrosis transmembrane conductance regulator (Homo sapiens), P13569 [M1101K]. The experiment in a line: Corrector activity at 3xHA-tagged full-length human CFTR M1101K mutant expressed in human CFBE41o- cells assessed as restoration of plasma membrane density of channel in presence of VX-809/N-(5-(4-fluorobenzyl)thiazol-2-yl)-2,5-dimethylfuran-3-carboxamide by ELISA relative to wild-type CFTR level. It is filed as cell membranes. The following applies: filed as activator.
Cystic fibrosis transmembrane conductance regulator (Homo sapiens), P13569 [M1101K], sequence (P13569 whole entry M1101K): as the sequence (P13569 whole entry S13F) above, with F13S, M1101K counted along it

In experiment [24] the test system is Cystic fibrosis transmembrane conductance regulator (Homo sapiens), P13569 [S492F]. The experiment in a line: Corrector activity at 3xHA-tagged full-length human CFTR S492F mutant expressed in human CFBE41o- cells assessed as restoration of plasma membrane density of channel incubated for 24 hrs in presence of VX-445 by ELISA. Type of experiment: cell membranes.

Cystic fibrosis transmembrane conductance regulator (Homo sapiens), P13569 [N1303K], sequence (P13569 whole entry N1303K): as the sequence (P13569 whole entry S13F) above, with F13S, N1303K counted along it

In general, EC50 refers to the midpoint of the concentration-response curve. Take `Cc1nc(-n2nc(-c3cccs3)cc2NC(=O)C2(c3ccc(Cl)cc3)CCCC2)[nH]c(=O)c1C`: the Activity was 250% in experiment [1]; -25% in [5]; “Dose-Dependent Effect” in [7]; 68% in experiment [13]; 15% in [15]; 95% in experiment [18]. Moreover, the Activity in experiment [23] is 15%. For the same compound, the outcome in [2], in [3], in [4], in experiment [10], in experiment [12] and in [14] was Active. Also, the result in experiment [16], in [19], in experiment [20], in experiment [21] and in [22] was Active. Moreover, the result in experiment [6], in [9], in experiment [11], in experiment [17] and in experiment [24] was inactive. The EC50 in experiment [8] was 1790 nM.

As to `Cc1cc(=O)[nH]c(-n2nc(-c3ccccc3)cc2NC(=O)C2(c3ccc(Cl)cc3)CCCC2)n1`, the Activity in [18] turned out to be 67%.

(Values after ChEMBL document CHEMBL5576150, “Synthesis and Biological Evaluation of Pyrazole-Pyrimidones as a New Class of Correctors of the Cystic Fibrosis Transmembrane Conductance Regulator (CFTR)” (J Med Chem, 2024).)
